Converted amounts (≈) assume the structure as drawn.
What was measured:
PDI A3 = molecular target: T1, PDI A3 (Homo sapiens, UniProt P30101); assay: PDI A3 inhibition, insulin turbidimetric assay; format: biochemical; conditions: 10 ug/ml PDI A3, incubated 60 min at 37° C., turbidity at 650 nm; read-out: Inhibition of PDI A3 (EC 50)
T1 construct: purchased Mybiosource; host or cells: E. coli
T1 sequence (P30101 25-505): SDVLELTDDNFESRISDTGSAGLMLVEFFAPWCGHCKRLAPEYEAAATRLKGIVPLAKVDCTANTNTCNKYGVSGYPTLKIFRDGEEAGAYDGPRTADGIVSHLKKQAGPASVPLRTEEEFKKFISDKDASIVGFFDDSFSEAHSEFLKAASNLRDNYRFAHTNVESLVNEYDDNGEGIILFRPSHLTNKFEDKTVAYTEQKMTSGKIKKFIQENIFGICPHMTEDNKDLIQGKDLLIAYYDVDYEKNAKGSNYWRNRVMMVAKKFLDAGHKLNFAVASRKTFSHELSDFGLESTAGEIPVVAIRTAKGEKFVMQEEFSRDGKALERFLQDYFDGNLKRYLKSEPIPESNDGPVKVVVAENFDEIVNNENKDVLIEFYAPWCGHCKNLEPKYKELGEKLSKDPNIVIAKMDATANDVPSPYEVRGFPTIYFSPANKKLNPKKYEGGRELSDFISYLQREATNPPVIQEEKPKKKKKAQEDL
Procedure, shortened: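 Recombinant E. coli-expressed PDIA3 (10 ug/ml) was preincubated with compound for 60 min at 37° C in 0.1 mM phosphate buffer pH 7.6, 1 mM EDTA, 0.087 mM DTT. Reaction was started with insulin (0.15 mM final) and DTT (0.174 mM final). Insulin reduction was followed as turbidity at 650 nm over 120-s recordings, against reference samples without PDI.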

MDA-MB-231 = assay: MTT antiproliferative assay, 48 h, MDA-MB-231; format: cell-based, human; conditions: 48-hour exposition, read-out: Cytotoxicity, IC50, μM MDA-MB-231
MCF-7 [1] = assay: MTT antiproliferative assay, 48 h, MCF-7; format: cell-based, human; conditions: 48-hour exposition, read-out: Cytotoxicity, IC50, μM MCF-7
MCF-7 [2] = assay: MTT antiproliferative assay, 72 h, with or without estradiol, MCF-7; format: cell-based, human
Experimental: Anticancer activity of selected compounds of invention, PDI A3-inhibitors has been also tested in vitro in antiproliferative assay in normoxic and hypoxic conditions as well in estrogen-stimulated cancer cells. In the experiment, cells were seeded on 96-well plates (Sarstedt, Germany) in appropriate culture medium at a density of 10^5 cells/mL 24 h before adding the tested compounds. Cells were treated with each compound in four concentrations in the range 0.1-100 μg/mL. […] After 72 h of compound treatment at 37° C., 5% CO2 humid atmosphere and in wo different oxygen level conditions: 21%—normal and <1%—hypoxia. In some experiments the MDA-MB-231 and MCF-7 cells were seeded with or without 200 nM estradiol and after 24 h the tested compounds were added. A previously described sulforhodamine B antiproliferative assay was used with minor modifications (Skehan P et al., 1990). Briefly, cells were fixed with 50 μL/well of 50% (w/v) trichloroacetic acid (Avantor Performance Materials, Gliwice, Poland). After 1 h incubation, plates were washed several times with tap water and 50 μL of 0.4% (w/v) solution of sulforhodamine B (Sigma-Aldrich, Germany) in 1% (v/v) acetic acid (Avantor Performance Materials, Gliwice, Poland) was added to each well. After 30 min incubation at room temperature, unbound dye was washed out with 1% (v/v) acetic acid, whereas bound dye was solubilized with 10 mM unbuffered TRIS (Avantor Performance Materials, Gliwice, Poland) solution. The entire procedure was performed using a BioTek EL-406 washing station (BioTek Instruments, USA). After additional 30 min, absorbance was read using a Biotek Hybrid H4 reader (BioTek Instruments, USA) at 540 nm wavelength. MTT assay was used alternatively for HL-60 cell line and in the experiment in which estrogens are added (specified in the table legend). Absorbance was measured using a Biotek Hybrid H4 reader at 570 nm wavelength for MTT assay.
Compounds at each concentration were tested in triplicate in a single experiment and each experiment was repeated at least three times independently. Results are presented as mean IC50±SD.

COC(=O)C1CN1S(=O)(=O)c1ccc2c(C=O)c(N(C)C)ccc2c1 (stereo not drawn) [Compound C-3390, Methyl 1-[[6-(dimethylamino)-5-formyl-2-naphthyl]sulfonyl]aziridine-2-calboxylate]
EC50 (PDI A3): 4 µM
IC50 (MDA-MB-231): 18 ± 0.1 µM
IC50 (MCF-7 [1]): 20 ± 0.3 µM
Lower sensitivity after treatment with estradiol in MCF-7 (MCF-7 [2]; estradiol (200 nM), Table 4): not observed
IC50 [μg/ml] MCF-7 normal (MCF-7 [2]; not pretreated with estradiol, 72 hours exposition, MTT): 3.2 ± 0.3 µg/mL (≈ 8.83 µM)
IC50 [μg/ml] MCF-7 +estradiol (MCF-7 [2]; pretreated with 200 nM estradiol, 72 hours exposition, MTT): 3.4 ± 0.3 µg/mL (≈ 9.38 µM)
